Publication PMC3519477, “Structures of the Human Poly (ADP-Ribose) Glycohydrolase Catalytic Domain Confirm Catalytic Mechanism and Explain Inhibition by ADP-HPD Derivatives” (PLoS ONE, 2012)
Where “and” joins values, the source holds several entries; their conditions need not be identical. Identical values can stand only once. Like-named read-outs stand apart in the source and are kept apart here. Blank lines part the entries; values can stand above or below the compound they belong to.

Legend:
[1] = tested on: bPARG Tyr796Trp mutant; set-up: method as in supplemental 6 (Koh et al., 2003); conditions: ref supplemental 6 (Koh et al., 2003); cited from earlier work
[2] = biological target: bPARG Glu728Asn mutant; conditions: cited from earlier work
[3] = tested on: bPARG Glu757Asn mutant; set-up: method as in supplemental 2 (Patel et al., 2005); conditions: ref supplemental 2 (Patel et al., 2005); cited from earlier work
[4] = biological target: wild-type bPARG; set-up: method as in PMID 15658938; conditions: SPR with immobilized 8-AH-ADP-HPD; cited from earlier work
[5] = tested on: bPARG Glu708Asn mutant; conditions: ref supplemental 2 (Patel et al., 2005); cited from earlier work
[6] = tested on: bPARG Asp738Asn mutant; conditions: ref supplemental 2 (Patel et al., 2005); cited from earlier work
[7] = tested on: bPARG Glu756Asn mutant; set-up: method as in supplemental 2 (Patel et al., 2005); conditions: ref supplemental 2 (Patel et al., 2005); cited from earlier work
[8] = biological target: T1, hPARG4 (hPARG(448–976)) (Homo sapiens, UniProt Q86W56); test: PARG activity HTRF assay (PAR-PARP1 hydrolysis); assay type: biochemical; conditions: 9 µL HTRF
T1 construct: a codon optimized gene encoding human PARG(448–976) was synthesized by GeneArt; 6His (TEV-cleavable) (N, cleaved yes); made in house; host or cells: E. coli BL21 (DE3) GOLD
Method: (§1) PARG activity was assessed using an HTRF assay which will be described in detail elsewhere (Bennett et al, manuscript in preparation). […] Following this incubation, biotinylated NAD^+ at a molar ratio to PARylated PARP1 of 0.7∶1 was added and incubation continued for 5 minutes. The reaction was terminated by addition of a PARP1-specific inhibitor to a final concentration of 4.7 µM. The solution was dialysed overnight to remove excess biotinylated NAD^+ and compound, and stored at −80°C. PARG activity was measured in a 384-well format HTRF assay using the biotin-labelled PARylated PARP1 as a substrate. Residual biotinylated PARylated PARP1 was detected by addition of a detection mix containing anti-6His–XL antibody (Cisbio) and streptavidin europium cryptate (Cisbio), and then monitoring the ratio of emission at 665 nm to 612 nm upon excitation at 340 nm.
(§2) Inhibition by ADP-HPD was measured using serial dilutions over the range 100 µM to 100 pM compound from a 1 mM stock in water. Assays contained 30 pM purified recombinant PARG and 9.67 nM PAR-PARP1 in a final volume of 9 µL assay buffer (50 mM MOPS pH 7.4, 0.1 mg/mL BSA, 3 mM EDTA, 0.4 mM EGTA, 1 mM DTT, 0.01% v/v Tween20, 50 mM KCl). […] IC50s were calculated using a time-point of 1.5 hours from the addition of detection reagents. […]

[9] = biological target: T2, hPARG26 (hPARG(448–976 [K616A, Q617A, K618A, E688A, K689A & K690A])) (Homo sapiens, UniProt Q86W56, E688A/K616A/K618A/K689A/K690A/Q617A); test: PARG activity HTRF assay (PAR-PARP1 hydrolysis); assay type: biochemical; conditions: 9 µL HTRF
T2 construct: a codon optimized gene encoding human PARG(448–976 [K616A, Q617A, K618A, E688A, K689A, K690A]); 6His (TEV-cleavable) (N, cleaved yes); made in house; host or cells: E. coli BL21 (DE3) GOLD (shake flasks, as for hPARG4)
Method: as §1, §2

[10] = biological target: T3, hPARG (full-length recombinant hPARG(1–976)-6His) (Homo sapiens, UniProt Q86W56); test: PARG activity HTRF assay (PAR-PARP1 hydrolysis); assay type: biochemical; conditions: hPARG
T3 construct: direct expression of hPARG(1–976) with a C-terminal hexahistidine tag; made in house; host or cells: E. coli BL21 (DE3) GOLD
Method: as §1
Inhibition by ADP-HPD was measured using serial dilutions over the range 100 µM to 100 pM compound from a 1 mM stock in water. Assays contained 30 pM purified recombinant PARG and 9.67 nM PAR-PARP1 in a final volume of 9 µL assay buffer (50 mM MOPS pH 7.4, 0.1 mg/mL BSA, 3 mM EDTA, 0.4 mM EGTA, 1 mM DTT, 0.01% v/v Tween20, 50 mM KCl). Reactions were allowed to proceed for 8 minutes prior to the addition of 3 µL detection reagents (50 mM MOPS pH 7.4, 0.1 mg/mL BSA, 0.1 M Potassium Fluoride, 14 nM anti-6HIS-XL antibody, 0.75 nM Streptavidin Europium Cryptate). IC50s were calculated using a time-point of 1.5 hours from the addition of detection reagents.
Here, 17.5 nL of ADP-HPD ([…]) or OA-ADP-HPD (21.43 mM in DMSO) were dispensed by an ECHO555 (Labcyte Inc.) into Greiner white 1536-well plates over the specified range: ADP-HPD (100 µM to 100 pM) and OA-ADP-HPD (500 µM to 30 nM).
ADP-HPD and OA-ADP-HPD inhibition data were visualised in Prism (GraphPad), and IC50s derived from a non-linear regression analysis of the values from three separate experiments (run in triplicate) fit to a sigmoidal dose-response curve.

[11] = tested on: bovine PARG (bPARG), recombinant catalytic domain; set-up: method as in PMID 13678410; conditions: recombinant catalytic domain of bPARG; read-out: IC50, literature value; cited from earlier work
[12] = biological target: T1, hPARG4 (hPARG(448–976)); test: Isothermal titration calorimetry; assay type: binding; conditions: 25°C
Method: (§3) This was carried out using an iTC200 instrument (Microcal, GE Healthcare, Northampton, MA) at 25°C in the following buffer: 20 mM HEPES pH 7, 150 mM NaCl, 2 mM DTT, 0.02% NaN3. Protein concentrations were typically 30 µM in the cell with ligand concentrations of at least 10 fold this concentration in the syringe. Typical injection protocols of 19×2 µL injections, spaced at 2 or 3 minute intervals were used. Curves were fitted by non-linear regression analysis using a one-site binding model provided by MicroCal Origin software (version 7).

[13] = biological target: T4, hPARG (full-length) (Homo sapiens, UniProt Q86W56); test: Isothermal titration calorimetry; assay type: binding; conditions: 25°C
T4 construct: direct expression of hPARG(1–976) with a C-terminal hexahistidine tag; made in house; host or cells: E. coli BL21 (DE3) GOLD
Method: as §3

[14] = tested on: bovine PARG (bPARG), purified full-length protein; set-up: method as in PMID 13678410; conditions: read-out: IC50, literature value; cited from earlier work
[15] = biological target: T1, hPARG4 (hPARG(448–976)); test: SPR binding to immobilised PARG, steady state fits; conditions: 25°C, steady state fit
Method: (§4) Biosensor (SPR) analyses were conducted using a BIAcore 3000 or BIAcore S51 instrument. Research grade CM5 chips and coupling reagents (N-ethyl-N′-dimethylaminopropylcarbodiimide, EDC; N-hydroxysuccinimide, NHS; and 1 M ethanolamine HCl, pH 8.5) were purchased from BIAcore (GE Healthcare, Northampton, MA).
(§5) A CM5 chip was docked into the instrument, primed 5 times with filtered and degassed running buffer containing 50 mM HEPES pH 7, followed by preconditioning at 100 µL/min using two consecutive aliquots of 50 µL each of 10 mM HCl, 50 mM NaOH, 0.1% (w/v) SDS, 0.085% (v/v) H3PO4. PARG surfaces were prepared by standard amine coupling via exposed amines on PARG. Immobilisations were conducted at 25°C in 50 mM HEPES at a flow rate of 5 µL/min. Flow cells were activated for 7 min by injecting a 35 µL mixture of 50 mM NHS: 200 mM EDC. Subsequently, 35 µL of 100 µg/mL PARG was injected for 7 min, followed by a 35 µL injection of ethanolamine. Typical immobilisation levels ranged from 3000 to 5000 resonance units (RU). Nonderivatised flow cells served as reference surfaces.
(§6) Studies of PARG inhibitor binding were conducted at 25°C. […] To calculate affinities, SPR equilibrium binding data, consisting of Req values from 8–10 point concentration series, were analyzed by fitting a simple 1∶1 binding model to yield Rmax and Kd values using non-linear regression analysis in Grafit 6 (Erithacus Software).

[16] = biological target: T4, hPARG (full-length); test: SPR binding to immobilised PARG, steady state fits; conditions: 25°C, steady state fit
Method: as §4, §5, §6

[17] = biological target: bPARG; set-up: method as in PMID 7830282; conditions: read-out: KD, literature values for bPARG; cited from earlier work

T1 sequence (Q86W56 448-976): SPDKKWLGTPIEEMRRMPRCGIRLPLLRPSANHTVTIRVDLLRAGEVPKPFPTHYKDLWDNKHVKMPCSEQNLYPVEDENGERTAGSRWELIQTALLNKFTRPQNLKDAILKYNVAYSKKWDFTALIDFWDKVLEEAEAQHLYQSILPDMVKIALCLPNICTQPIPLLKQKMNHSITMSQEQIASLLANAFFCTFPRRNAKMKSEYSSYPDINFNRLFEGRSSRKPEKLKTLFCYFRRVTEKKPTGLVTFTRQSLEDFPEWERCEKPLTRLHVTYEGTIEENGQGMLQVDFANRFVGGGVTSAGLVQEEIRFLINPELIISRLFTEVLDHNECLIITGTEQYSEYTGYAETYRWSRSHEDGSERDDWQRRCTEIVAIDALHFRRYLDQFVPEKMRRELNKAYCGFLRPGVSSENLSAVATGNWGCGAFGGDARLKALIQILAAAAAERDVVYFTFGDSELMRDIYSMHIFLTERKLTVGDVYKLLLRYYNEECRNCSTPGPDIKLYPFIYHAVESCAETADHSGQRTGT
T4 sequence (Q86W56 whole entry): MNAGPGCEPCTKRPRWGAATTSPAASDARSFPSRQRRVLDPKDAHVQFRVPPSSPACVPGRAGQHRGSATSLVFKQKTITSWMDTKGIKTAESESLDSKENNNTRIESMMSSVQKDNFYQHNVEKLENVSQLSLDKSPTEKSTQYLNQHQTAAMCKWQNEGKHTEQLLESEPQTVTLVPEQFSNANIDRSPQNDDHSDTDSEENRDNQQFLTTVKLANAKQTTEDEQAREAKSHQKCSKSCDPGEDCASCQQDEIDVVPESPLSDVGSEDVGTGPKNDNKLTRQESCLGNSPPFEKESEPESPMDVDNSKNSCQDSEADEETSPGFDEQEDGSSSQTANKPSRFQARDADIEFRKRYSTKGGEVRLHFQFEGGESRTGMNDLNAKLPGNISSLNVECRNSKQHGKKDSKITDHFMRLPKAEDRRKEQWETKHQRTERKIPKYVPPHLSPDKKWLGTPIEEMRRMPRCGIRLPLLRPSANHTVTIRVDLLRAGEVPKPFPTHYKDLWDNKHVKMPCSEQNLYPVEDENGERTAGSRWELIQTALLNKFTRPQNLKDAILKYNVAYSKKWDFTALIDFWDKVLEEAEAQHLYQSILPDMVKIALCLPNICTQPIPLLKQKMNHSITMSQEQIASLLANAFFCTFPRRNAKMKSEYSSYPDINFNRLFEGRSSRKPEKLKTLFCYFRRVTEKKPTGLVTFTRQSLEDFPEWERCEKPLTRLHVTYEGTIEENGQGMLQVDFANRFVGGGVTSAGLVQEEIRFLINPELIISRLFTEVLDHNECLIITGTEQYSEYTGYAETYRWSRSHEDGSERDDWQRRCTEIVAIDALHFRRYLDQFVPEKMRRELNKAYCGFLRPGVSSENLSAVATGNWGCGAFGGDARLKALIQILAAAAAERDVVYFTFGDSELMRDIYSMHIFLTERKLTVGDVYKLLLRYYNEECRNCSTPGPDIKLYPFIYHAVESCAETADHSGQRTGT
T3 sequence (Q86W56 whole entry): as above
T2 sequence (Q86W56 448-976 K616A/Q617A/K618A/E688A/K689A/K690A): as the sequence (Q86W56 448-976) above, with K169A, Q170A, K171A, E241A, K242A, K243A counted along it

Compound: 8-aminohexylaminoADP-HPD [8-AH-ADP-HPD]
- effect of mutation on binding [1]: Limited effect on catalytic activity and 8-AH-ADP-HPD binding
- Kd ([2]; bPARG Glu728Asn (E727N in hPARG), SPR with immobilized 8-AH-ADP-HPD): 3.2 nM
- increase in affinity versus wild-type ([2]; bPARG Glu728Asn, ref supplemental 2 (Patel et al., 2005)): 18% wild-type specific activity; 2.5-fold increase in affinity for 8-AH-ADP-HPD
- effect of mutation on affinity [3]: No detectable activity; no effect on 8-AH-ADP-HPD affinity
- Kd [4]: 8.2 nM
- increase in affinity versus wild-type [5]: No effect on catalytic activity; 2.5-fold increase in affinity for 8-AH-ADP-HPD
- decrease in affinity versus wild-type [6]: No detectable activity; 1.4-fold decrease in affinity for 8-AH-ADP-HPD
- increase in affinity versus wild-type [7]: No detectable activity; 8-fold increase in 8-AH-ADP-HPD affinity

- IC50 [8]: 970 ± 240 nM
- IC50 [9]: 1100 ± 220 nM
- IC50 ([10]; 384-well HTRF, 9 µL, 30 pM PARG, 9.67 nM PAR-PARP1, 8 min reaction, read-out: IC50): 3000 nM and 3100 nM
- IC50 ([10]; conditions of the High Throughput Screening campaign, read-out: IC50 under HTS campaign conditions): ~600 nM
- Kd ([12]; read-out: KD (ITC)): 132 ± 14 nM
- ΔG ([12]; ITC): -9.42 ± 0.072 kcal/mol
- ΔH ([12]; ITC): -13.4 ± 0.096 kcal/mol
- ΔS ([12]; ITC): −56.1±0.5 J/mol/K
- Kd ([13]; values heavily influenced by base-line noise (Figure S2), read-out: KD (ITC)): 416 ± 89.9 nM
- ΔG ([13]; ITC): -8.7 ± 0.12 kcal/mol
- ΔH ([13]; ITC): -7.36 ± 0.0096 kcal/mol
- ΔS ([13]; ITC): +18.8±1.7 J/mol/K
- Kd [15]: 64.3 ± 2.6 nM
- Kd [16]: 44.8 ± 2.9 nM
Compound: Nc1ncnc2c1ncn2C1OC(COP(=O)(O)OP(=O)(O)OCC2NCC(O)C2O)C(O)C1O (stereo not shown) [ADP-HPD, adenosine 5′-diphosphate (hydroxymethyl)pyrrolidinediol]
- IC50 [11]: 1000 to 1400 nM
- IC50 [14]: 330 nM
- Kd [17]: 50 to 80 nM
